In the assay the test system is NRG1-ERBB4 signaling. The assay can be described thus: Nrg1-ERBB4-PIK3R1 split TEV co-culture compound screen of the NIH Clinical Collection. The class given is cell-based, human.
The mark [1] stands for this setting: compounds at 10 μM, 24 h, PC12 split TEV assay cells co-cultured with Nrg1-expressing PC12 cells, analysed with cellHTS2.
The mark [2] stands for this setting: compound screen of the NIH Clinical Collection, sheet raw data NCC-003, compounds ranked by Z-score.
Where [3] appears, read: NIH Clinical Collection NCC-003 raw data, compounds ranked by Z-score, 'flagged' given instead of a Z-score.

Values joined by “and” are separate entries in the source; they are usually repeats but may differ in a detail not shown here. Equal values may be shown once. Where a name gives a salt, the structure may show the parent alone. Read-outs that look alike come from different tables or passages of the source.

Turning to `O=C(N[C@H](CO)[C@H](O)c1ccc([N+](=O)[O-])cc1)C(Cl)Cl` [Chloramphenicol, reference compound], the Z-SCORE under setting [1] came to 0.74.

Molecule `CN1CC(=O)N2[C@H](c3ccc4c(c3)OCO4)c3[nH]c4ccccc4c3C[C@@H]2C1=O` registered a Z-SCORE under setting [2] of 0.97.

Turning to `C[n+]1ccccc1/C=N/O.[Cl-]` [PYRIDINE-2-ALDOXIME METHOCHLORIDE, reference compound], the Z-SCORE under setting [1] turned out to be 2.7.

The molecule `CN(C)CC/C=C1/c2ccccc2COc2ccc(CC(=O)O)cc21` [OLOPATADINE HCl] yielded a Z-SCORE under setting [2] of 0.55.

On to `CCc1nn(CCCN2CCN(c3cccc(Cl)c3)CC2)c(=O)n1CCOc1ccccc1` [Nefazodone], for which the Z-SCORE under setting [2] is -0.63.

`CN(C)CCCC1(c2ccc(F)cc2)OCc2cc(C#N)ccc21` (stereo not shown) [Citalopram hydrobromide] showed a Z-SCORE under setting [2] of -0.45.

For `CCC(=O)O[C@]1(C(=O)CCl)[C@@H](C)C[C@H]2[C@@H]3CCC4=CC(=O)C=C[C@]4(C)[C@@]3(F)[C@@H](O)C[C@@]21C` [CLOBETASOL PROPIONATE, reference compound], the Z-SCORE under setting [1] was -2.64.

As to `CC(=O)OCC(=O)[C@@]1(O)CC[C@H]2[C@@H]3CCC4=CC(=O)C=C[C@]4(C)[C@H]3[C@@H](O)C[C@@]21C` [PREDNISOLONE ACETATE, reference compound], the Z-SCORE under setting [1] is given as -0.58.

`COc1ccc2cc([C@H](C)C(=O)O)ccc2c1` [NAPROXEN SODIUM] registered a Z-SCORE under setting [2] of 0.35.

Turning to `CC(=O)OCC(CCn1cnc2cnc(N)nc21)COC(C)=O` [FAMCICLOVIR], the Z-SCORE under setting [2] stood at 1.05.

Under setting [1], `CN1[C@@H]2CC[C@H]1C[C@@H](OC(c1ccccc1)c1ccccc1)C2.CS(=O)(=O)O` [Cogentin Mesylate, reference compound] displayed a Z-SCORE of -2.36.

Under setting [2], `COc1cc(CNC(=O)CCCC/C=C/C(C)C)ccc1O` [Capsaicin] showed a Z-SCORE of -0.46.

`O=C(c1ccc(OCCN2CCCCC2)cc1)c1c(-c2ccc(O)cc2)sc2cc(O)ccc12` [Evista, reference compound] gave a Z-SCORE under setting [1] of 1.2.

With `CN(C)c1nc(N(C)C)nc(N(C)C)n1` [Altretamine, reference compound], under setting [1], the Z-SCORE is on record as -0.4.

Regarding `COc1cccc2c1C(=O)c1c(O)c3c(c(O)c1C2=O)C[C@@](O)(C(C)=O)C[C@@H]3O[C@H]1C[C@H](N)[C@H](O)[C@H](C)O1` [DAUNORUBICIN HYDROCHLORIDE, reference compound], the Z-SCORE result under setting [1] is recorded as “flagged”.

Molecule `C#C[C@]1(O)CC[C@H]2[C@@H]3[C@H](C)CC4=C(CCC(=O)C4)[C@H]3CC[C@@]21C` [TIBOLONE] showed a Z-SCORE under setting [2] of 2.26.

With `COc1ccc(CN2CCN(C(c3ccc(F)cc3)c3ccc(F)cc3)CC2)c(OC)c1OC.Cl.Cl` [LOMERIZINE DiHCl], the Z-SCORE under setting [3] is -1.48.

As for `CCC(=O)O[C@]1(C(=O)SCF)[C@H](C)C[C@H]2[C@@H]3C[C@H](F)C4=CC(=O)C=C[C@]4(C)[C@@]3(F)[C@@H](O)C[C@@]21C` [FLUTICASONE PROPIONATE], the Z-SCORE under setting [2] is -0.31.

Regarding `CC(C)(C)NC(=O)[C@@H]1CN(Cc2cccnc2)CCN1C[C@@H](O)C[C@@H](Cc1ccccc1)C(=O)N[C@H]1c2ccccc2C[C@H]1O` [INDINAVIR SULPHATE], the Z-SCORE under setting [2] is listed as 0.35.

With `Nc1ccn([C@@H]2CS[C@H](CO)O2)c(=O)n1` [LAMIVUDINE, reference compound], the Z-SCORE by setting is: under setting [2], 0.14; under setting [1], 0.33.

Turning to `Cc1onc(-c2ccccc2)c1-c1ccc(S(N)(=O)=O)cc1` [VALDECOXIB], under setting [2], the Z-SCORE is listed as 0.19.

`CN(C)CCCSc1ccccc1NC(=O)/C=C/c1ccccc1` [Cinanserin]: the Z-SCORE under setting [2] is -0.77.

In turn, `C#C[C@]1(O)CC[C@H]2[C@@H]3CCC4=CC(=O)CC[C@@H]4[C@H]3CC[C@@]21CC` [LEVONORGESTREL] yielded a Z-SCORE under setting [2] of -1.05.

Take `CCCc1nc(C(C)(C)O)c(C(=O)OCc2oc(=O)oc2C)n1Cc1ccc(-c2ccccc2-c2nnn[nH]2)cc1` [OLMESARTAN MEDOXOMIL]: the Z-SCORE under setting [2] was 0.84.

For `COC(=O)C[C@](O)(CCCC(C)(C)O)C(=O)O[C@@H]1C(OC)=C[C@]23CCCN2CCc2cc4c(cc2[C@H]13)OCO4` [HOMOHARRINGTONINE], the Z-SCORE result under setting [3] is “flagged”.

In turn, `CC1(C)O[C@@H]2[C@@H](CO[C@@]3(COS(N)(=O)=O)OC(C)(C)O[C@@H]23)O1` [TOPIRAMATE] displayed a Z-SCORE under setting [2] of 0.63.

In turn, `CNCCC=C1c2ccccc2CCc2ccccc21` [Pamelor, reference compound] came in with a Z-SCORE under setting [1] of 0.41.

Regarding `O=C(c1ccc(F)cc1)C1CCN(CCn2c(=S)[nH]c3ccccc3c2=O)CC1` [Altanserin], under setting [2], the Z-SCORE turned out to be 0.71.

Under setting [2], `CN1[C@@H](CC(=O)c2ccccc2)CCC[C@H]1C[C@H](O)c1ccccc1` [LOBELINE HYDROCHLORIDE] gave a Z-SCORE of 0.14.

`Cl.Nc1c2c(nc3ccccc13)CCCC2` had a Z-SCORE of 1.29.

Turning to `CC(C)[C@H]1CC[C@H](C(=O)N[C@H](Cc2ccccc2)C(=O)O)CC1` [NATEGLINIDE], the Z-SCORE under setting [2] is recorded as -0.03.

For the molecule `CC(C(=O)O)c1cccc(C(=O)c2ccccc2)c1` (stereo not shown) [KETOPROFEN, reference compound], the Z-SCORE under setting [1] is given as 0.15.

Take `C[C@]12CC[C@H]3[C@@H](CCC4=CC(=O)CC[C@@]43C)[C@@H]1CC[C@@H]2O` [Testosterone, reference compound]: the Z-SCORE was 0.79 and 0.91.

Turning to `CN1CCN(C(=O)O[C@H]2c3nccnc3C(=O)N2c2ccc(Cl)cn2)CC1` [Eszopiclone, reference compound], the Z-SCORE under setting [1] came out at 0.38.

Take `C[C@]12CCC(=O)C=C1CC[C@@H]1[C@@H]2CC[C@@]2(C)[C@H]1CC[C@]2(C)O` [Methyltestosterone]: the Z-SCORE under setting [2] was -0.41.

Molecule `O=C(NCCO[N+](=O)[O-])c1cccnc1` [NICORANDIL] gave a Z-SCORE under setting [2] of -0.09.

In turn, `CCN(CC)CC1CCCCN1CC(=O)N1c2ccccc2C(=O)Nc2cccnc21` (stereo not shown) returned a Z-SCORE under setting [2] of 1.

The molecule `COCCCOc1ccnc(C[S+]([O-])c2nc3ccccc3[nH]2)c1C` (stereo not shown) [RABEPRAZOLE] yielded a Z-SCORE under setting [2] of -0.02.

With `CSc1ccc2c(c1)N(CCC1CCCCN1C)c1ccccc1S2` (stereo not shown) [THIORIDAZINE HYDROCHLORIDE, reference compound], the Z-SCORE entry under setting [1] is on record as “flagged”.

Regarding `NC(=O)N1c2ccccc2CC(=O)c2ccccc21` [Trileptal], under setting [2], the Z-SCORE is listed as 0.62.

Turning to `N[C@@H]1CON=C1O` [D-CYCLOSERINE, reference compound], the Z-SCORE is 2.86 under setting [2] and -0.66 under setting [1].

Molecule `C=CC1=C(C(=O)O)N2C(=O)[C@@H](NC(=O)/C(=N\OCC(=O)O)c3csc(N)n3)[C@H]2SC1` [CEFIXIME TRIHYDRATE] registered a Z-SCORE under setting [2] of 1.63.

`CC1=C(/C=C/C(C)=C/C=C/C(C)=C/C(=O)O)C(C)(C)CCC1` [Retinoic acid, reference compound] came in with a Z-SCORE under setting [1] of 1.72.

In the case of `NC1CCN(c2nc3c(cc2F)c(=O)c(C(=O)O)cn3-c2ccc(F)cc2F)C1` (stereo not shown) [TOSUFLOXACIN TOSYLATE], the Z-SCORE under setting [2] is recorded as 0.08.

Consider `CC(C)OC(=O)CCC/C=C\C[C@@H]1[C@@H](CC[C@@H](O)CCc2ccccc2)[C@H](O)C[C@@H]1O` [LATANOPROST], for which, under setting [2], the Z-SCORE is -0.3.

Molecule `Clc1ccc(COC(Cn2ccnc2)c2ccc(Cl)cc2Cl)c(Cl)c1` (stereo not shown) [MICONAZOLE NITRATE, reference compound] came in with a Z-SCORE under setting [1] of -0.69.

Under setting [2], `CCCc1c(OCCCCc2nnn[nH]2)ccc(C(C)=O)c1O` [LY 171883] showed a Z-SCORE of 2.04.

The molecule `CCN(CC)CC#CCOC(=O)C(O)(c1ccccc1)C1CCCCC1` (stereo not shown) [OXYBUTYNIN CHLORIDE, reference compound] registered a Z-SCORE under setting [1] of -0.59.

Turning to `Cc1nc2n(c(=O)c1CCN1CCC(c3noc4cc(F)ccc34)CC1)CCCC2` [RISPERIDONE], the Z-SCORE under setting [2] turned out to be 0.

Turning to `Oc1cc2c(cc1O)[C@@H]1c3ccccc3CN[C@H]1CC2`, the Z-SCORE under setting [2] was determined as 0.99.

The molecule `Cc1cnc(NC(=O)C2=C(O)c3ccccc3S(=O)(=O)N2C)s1` [Meloxicam, reference compound] registered a Z-SCORE under setting [1] of 0.24.

As for `CC(C(=O)O)c1ccc(CC2CCCC2=O)cc1` (stereo not shown) [LOXOPROFEN SODIUM], under setting [2], the Z-SCORE came to 0.32.

Turning to `CCCC(CCC)C(=O)O` [Valproic Acid, reference compound], under setting [1], the Z-SCORE is -1.05.

As for `O=C(O)c1cccnc1` [Nicotinic Acid, reference compound], under setting [1], the Z-SCORE is on record as -0.31.

With `O=C1Nc2ccccc2/C1=C1/Nc2ccccc2C1=O` [Indirubin], the Z-SCORE under setting [2] came to 0.67.

Under setting [1], `Nc1nc2c(ncn2COCCO)c(=O)[nH]1` [Acyclovir, reference compound] displayed a Z-SCORE of 0.99.

As for `COCCOC(=O)C1=C(C)NC(C)=C(C(=O)OC(C)C)C1c1cccc([N+](=O)[O-])c1` (stereo not shown) [NIMODIPINE], the Z-SCORE under setting [2] was -0.83.

`NC(N)=Nc1nc(CSCCC(N)=NS(N)(=O)=O)cs1` [FAMOTIDINE] returned a Z-SCORE under setting [3] of -1.65.

Consider `CCN(CC)CCOC(=O)C1(C2CCCCC2)CCCCC1` [Dicyclomine hydrochloride, reference compound], for which the Z-SCORE under setting [1] is -2.03.

Under setting [3], `COc1ccccc1OCCNCC(O)COc1cccc2[nH]c3ccccc3c12` (stereo not shown) [Carvedilol] registered a Z-SCORE of -1.89.

`CC[C@H]1OC(=O)[C@H](C)[C@@H](O[C@H]2C[C@@](C)(OC)[C@@H](O)[C@H](C)O2)[C@H](C)[C@@H](O[C@@H]2O[C@H](C)C[C@H](N(C)C)[C@H]2O)[C@](C)(OC)C[C@@H](C)C(=O)[C@H](C)[C@@H](O)[C@]1(C)O` [CLARITHROMYCIN] showed a Z-SCORE under setting [2] of 0.55.

In turn, `Cc1ncc([N+](=O)[O-])n1CC(C)O` (stereo not shown) returned a Z-SCORE under setting [2] of 1.35.

As for `CC(C)NCC(O)c1ccc(NS(C)(=O)=O)cc1` (stereo not shown) [Sotalol hydrochloride], the Z-SCORE under setting [2] turned out to be 1.57.

For the molecule `CNCCCN1c2ccccc2CCc2ccccc21` [Norpramin, reference compound], the Z-SCORE under setting [1] was -3.45.

For `Clc1ccc2c(c1)C(N1CCNCC1)=Nc1ccccc1O2` [AMOXAPINE, reference compound], the Z-SCORE under setting [1] is 0.4.

The values are drawn from PMC5653977 (EMBO Molecular Medicine, 2017).
